In patent US8030047B2, “Active truncated form of the RNA polymerase of flavivirus” (priority 2003, dated 2011):

Legend:
NS5PolDV = target: T1, NS5PolDV (Dengue virus type 2, UniProt P14340); assay: RNA polymerase activity of NS5PolDV on homopolymeric template poly(rC), [3H]-GTP incorporation; format: biochemical, Dengue virus (subtype 2, Strain New Guinea C); settings: for IC50: poly(rC) without primer, GTP 10 mM (so in the source), NS5PolDV 60 nM, [3H]-GTP incorporation after 15 min
T1 construct: The junction (or where the Pol domain starts) is located at amino acid 272; His-tag; made in house; host or cells: E. coli BL21[pDNAy], plasmid pQE30
Procedure: (§1) Activity was tested on three homopolymeric templates: poly(rC), poly(rU) and poly(rA). Only poly(rC) resulted to be a productive template for NS5PolDV. This was illustrated in FIG. 4 based on the following protocol: RNA polymerase activity was tested on a homopolymeric RNA template (polycytidylic acid, Amersham Biosciences) of an average length of 360 nt. A standard assay was carried out in 50 mM HEPES buffer, pH 8.0, 10 mM KCl, 5 mM MgCl2, 5 mM MnCl2, 10 mM DTT containing 1 μM template, […] primer GG, 10 μM GTP, 0.01 mCi [3H]-GTP per μl reaction mixture and the concentration of enzyme given below. Reactions were carried out at 30° C. for given time periods and stopped by spotting a sample on DEAE filter discs (Whatman) presoaked with 50 mM EDTA. Filters were washed 3×10 min with 300 mM (NH4)2SO4 buffer, pH 8.0 and 2×5 min with EtOH and air-dried. Liquid scintillation fluid was added and incorporation in counts per minute (cpm) determined by using a Wallac MicroBeta TriLux Liquid Scintillation Counter.
A: Influence of specific E. coli RNA polymerase inhibitor rifampicin on NS5PolDV and E. coli polymerase (control). NS5PolDV was tested using the conditions given above at 64-nM enzyme concentration. E. coli RNA polymerase was obtained from USBiochemicals and used in NS5PolDV standard reaction buffer at 37 nM.
In FIG. 5, the steady-state Km determination of GTP with various ligands was performed as follows: RNA polymerase activity was tested under conditions given in the description set forth above in the experiments related to FIG. 4 without the use of a primer. Initial velocities were determined over a time period of 5 min. GTP concentrations in the range of 2 to 500 μM were tested using poly(rC) at 1 μM. Template poly(rC) was tested in the range of 2 to 1000 nM with GTP fixed at 200 μM.
Initial velocities were determined on poly(rC) at 10 mM GTP and compared to corresponding values without inhibitor. […] Since these inhibition results are not identical, questions related to the putative interference of the capping domain remain when using the full-length polymerase.

NS5PolWNV = target: T2, NS5PolWNV (West Nile virus, UniProt Q9Q6P4, K2808N/V2900A); assay: RNA polymerase activity of NS5PolWNV on homopolymeric template poly(rC), [3H]-GTP incorporation; format: biochemical, West Nile virus (strain New York 99); settings: poly(rC) without primer; GTP 100 mM (so in the source); [3H]-GTP incorporation after 15 min
T2 construct: His-tag; made in house
T2 sequence (Q9Q6P4 2802-3433 K2808N/V2900A): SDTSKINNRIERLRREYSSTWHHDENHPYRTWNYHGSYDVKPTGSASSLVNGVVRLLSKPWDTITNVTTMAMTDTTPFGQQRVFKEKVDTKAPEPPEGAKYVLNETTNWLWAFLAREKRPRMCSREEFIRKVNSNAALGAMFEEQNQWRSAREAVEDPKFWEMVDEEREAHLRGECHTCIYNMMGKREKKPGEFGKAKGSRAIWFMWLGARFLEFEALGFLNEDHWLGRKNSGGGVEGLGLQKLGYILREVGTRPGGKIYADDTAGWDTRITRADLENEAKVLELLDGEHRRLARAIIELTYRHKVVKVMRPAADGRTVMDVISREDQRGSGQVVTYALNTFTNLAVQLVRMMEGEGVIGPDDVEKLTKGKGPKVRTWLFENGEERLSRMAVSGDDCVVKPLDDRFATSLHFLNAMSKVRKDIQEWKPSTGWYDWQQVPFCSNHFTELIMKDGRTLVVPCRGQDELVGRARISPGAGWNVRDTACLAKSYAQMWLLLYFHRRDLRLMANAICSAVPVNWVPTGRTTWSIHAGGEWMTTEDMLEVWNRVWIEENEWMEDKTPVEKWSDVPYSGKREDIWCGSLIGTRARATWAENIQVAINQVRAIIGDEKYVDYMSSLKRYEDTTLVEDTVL

full-length NS5DV = target: T3, full-length NS5DV (Dengue virus type 2, UniProt P14340); assay: RNA polymerase activity of full-length NS5DV on poly(rC); format: biochemical, Dengue virus (subtype 2, Strain New Guinea C); settings: inhibitor 10 mM, 10 mM GTP, read-out: Initial velocity compared to the protein without inhibitor
T3 construct: His-tag; made in house; host or cells: E. coli BL21[pDNAy], plasmid pQE30
Procedure: as §1, with “Filters were washed 3×10 min with 300 mM (NH4)2SO4 buffer, pH 8.0 and 2×5 min with EtOH and air-dried.” left out
In FIG. 5, the steady-state Km determination of GTP with various ligands was performed as follows: RNA polymerase activity was tested under conditions given in the description set forth above in the experiments related to FIG. 4 without the use of a primer. Initial velocities were determined over a time period of 5 min. […]
Initial velocities were determined on poly(rC) at 10 mM GTP and compared to corresponding values without inhibitor. […]

Compound: Nc1nc2c(ncn2[C@@H]2O[C@H](COP(=O)(O)OP(=O)(O)OP(=O)(O)O)C[C@H]2O)c(=O)[nH]1 [3′-deoxy GTP]
- IC50 (NS5PolDV): 20 nM

Compound: Nc1nc2c(ncn2[C@H]2CC[C@@H](COP(=O)(O)OP(=O)(O)OP(=O)(O)O)O2)c(=O)[nH]1 [2′,3′-dideoxy GTP]
- IC50 (NS5PolDV): 800 nM

Compound: 3′-dioxolane 3′-deoxy GTP
- IC50 (NS5PolWNV): 58000 nM
- IC50 (NS5PolDV): 1200 nM

Compound: CO[C@@H]1[C@H](O)[C@@H](COP(=O)(O)OP(=O)(O)OP(=O)(O)O)O[C@H]1n1cnc2c(=O)[nH]c(N)nc21 [2′-O-methyl-GTP]
- activity at 10000 µM (full-length NS5DV): 19.3%
- IC50 (NS5PolDV): 5600 nM
- activity at 10000 µM (NS5PolDV; read-out: Initial velocity compared to the protein without inhibitor): 29.3%
